This data set in a line: xn = mol fraction of the nth substance listed. The note with it: for electrical conductivity: 298 K, 100 kPa, frequency 0.001 MHz.

± gives the uncertainty stated by the source.

In the CheMixHub ionic liquid set one finds viscosity and electrical conductivity data, which are given here for three compounds.

As to `CCOCn1cc[n+](C)c1.O=S(=O)([N-]S(=O)(=O)C(F)(F)F)C(F)(F)F` + O, the viscosity (333 K, 101 kPa, x1 = 0.8415) was found to be 11.7 ± 0.3 mPa·s.
With `CCCCC(CC)COC(=O)CC(C(=O)OCC(CC)CCCC)S(=O)(=O)[O-].CCCC[n+]1ccn(C)c1` (stereo unspecified) + O, the viscosity runs as follows: (293.15 K, 99.6 kPa, x1 = 0.8687) 3442 ± 210 mPa·s; (303.15 K, 99.6 kPa, x1 = 0.8687) 1454 ± 77 mPa·s.
As to `CCCCCCCCCCCCOS(=O)(=O)[O-].[Na+]` + CCO + O, the electrical conductivity amounted to 0.0809 ± 0.00082 S/m (x2 = 0.02563, x3 = 0.9741); 0.103 ± 0.0011 S/m (x2 = 0.06861, x3 = 0.9309); 0.0828 ± 0.00085 S/m (x2 = 0.06862, x3 = 0.9311).

For orientation: viscosity means the resistance of a fluid to flow. A higher viscosity goes with sluggish flow.
